Values quoted from earlier work, collected in patent US9039761B2, “Ocular implant delivery assemblies with distal caps” (Allergan, Inc., priority 2006, dated 2015).

Details: efficacy in vivo; Goodman and Gilman's 8th Edition p. 1447

## C[C@]12CCC(=O)C=C1CC[C@@H]1[C@@H]2[C@@H](O)C[C@@]2(C)[C@H]1CC[C@]2(O)C(=O)CO [hydrocortisone]
  potency relative to dexamethasone (fold less potent): approximately twenty-five
